Source: patent US20230038929A1, “Fused Tricyclic Heterocyclic Compounds and Uses Thereof” (Verge Analytics, Inc., priority 2019, published 2023)
Counter-ions that a name gives are not always drawn.

Target: T1, Full length human recombinant PIKFYVE (Homo sapiens, UniProt Q9Y2I7, L932S/Q1183K/Q995L/S1033A/S696N/T998S)
T1 construct: Full length human recombinant PIKFYVE; purchased Carna Biosciences (Kobe, Japan); host or cells: baculovirus expression system (insect cells)
Experiment: Inhibition of PIKfyve (microfluidic electrophoresis kinase assay)
Format: biochemical
Conditions: 2 nM enzyme, 1 μM PI3P, 3 h at room temperature, 12 concentrations; read-out: PIKfyve IC50
Method: Biological Example 1: Inhibition of PIKfyve
Full length human recombinant PIKFYVE expressed in baculovirus expression system as N-terminal GST-fusion protein (265 kDa) was obtained from Carna Biosciences (Kobe, Japan). The kinase substrate was prepared by mixing and sonicating fluorescently-labeled phosphatidylinositol 3-phosphate (PI3P) with phospho-L-serine (PS) at a 1:10 ratio in 50 mM HEPES buffer pH7.5.
The kinase reactions were assembled in 384-well plates (Greiner) in a total volume of […] as follows. Kinase protein was pre-diluted in an assay buffer comprising 25 mM HEPES, pH 7.5, 1 mM DTT, 2.5 mM MgCl2, and 2.5 mM MnCl2, and 0.005% Triton X-100, and dispensed into a 384-well plate (10 μL per well). Test compounds were serially pre-diluted in DMSO and added to the protein samples by acoustic dispensing (Labcyte Echo). The concentration of DMSO was equalized to 1% in all samples. All test compounds were tested at 12 concentrations. Apilimod was used as a reference compound and was tested in identical manner in each assay plate. Control samples (0%-inhibition, in the absence of inhibitor, DMSO only) and 100%-inhibition (in the absence of enzyme) were assembled in replicates of four and were used to calculate %-inhibition in the presence of compounds. The reactions were initiated by addition of 10 μL of 2× PI3P/PS substrate supplemented with ATP. The final concentration of enzyme was 2 nM, the final concentration of ATP was […], and the final concentration of PI3P/PS substrate was 1 μM (PI3P). The kinase reactions were allowed to proceed for 3 h at room temperature. Following incubation, the reactions were quenched by addition of […] of termination buffer (100 mM HEPES, pH 7.5, 0.01% Triton X-100, 20 mM EDTA). Terminated plates were analyzed on a microfluidic electrophoresis instrument (Caliper LabChip® 3000, Caliper Life Sciences/Perkin Elmer). The change in the relative fluorescence intensity of the PI(3)P substrate and PI(3,5)P product peaks was measured. The activity in each test sample was determined as the product to sum ratio (PSR): P/(S+P), where P is the peak height of the product, and S is the peak height of the substrate. Percent inhibition (Pinh) was determined using the following equation:
Pinh=(PSR0%inh−PSRcompound)/(PSR0%inh−P100%inh)*100
in which PSRcompound is the product/sum ratio in the presence of compound, PSR0%inh is the product/sum ratio in the absence of compound, and the PSR100%inh is the product/sum ratio in the absence of the enzyme. To determine the ICso of test compounds (50%-inhibition) the %-inh cdata (Pinh versus compound concentration) were fitted by a four-parameter sigmoid dose-response model using XLfit software (IDBS).

T1 sequence (Q9Y2I7 whole entry S696N/L932S/Q995L/T998S/S1033A/Q1183K): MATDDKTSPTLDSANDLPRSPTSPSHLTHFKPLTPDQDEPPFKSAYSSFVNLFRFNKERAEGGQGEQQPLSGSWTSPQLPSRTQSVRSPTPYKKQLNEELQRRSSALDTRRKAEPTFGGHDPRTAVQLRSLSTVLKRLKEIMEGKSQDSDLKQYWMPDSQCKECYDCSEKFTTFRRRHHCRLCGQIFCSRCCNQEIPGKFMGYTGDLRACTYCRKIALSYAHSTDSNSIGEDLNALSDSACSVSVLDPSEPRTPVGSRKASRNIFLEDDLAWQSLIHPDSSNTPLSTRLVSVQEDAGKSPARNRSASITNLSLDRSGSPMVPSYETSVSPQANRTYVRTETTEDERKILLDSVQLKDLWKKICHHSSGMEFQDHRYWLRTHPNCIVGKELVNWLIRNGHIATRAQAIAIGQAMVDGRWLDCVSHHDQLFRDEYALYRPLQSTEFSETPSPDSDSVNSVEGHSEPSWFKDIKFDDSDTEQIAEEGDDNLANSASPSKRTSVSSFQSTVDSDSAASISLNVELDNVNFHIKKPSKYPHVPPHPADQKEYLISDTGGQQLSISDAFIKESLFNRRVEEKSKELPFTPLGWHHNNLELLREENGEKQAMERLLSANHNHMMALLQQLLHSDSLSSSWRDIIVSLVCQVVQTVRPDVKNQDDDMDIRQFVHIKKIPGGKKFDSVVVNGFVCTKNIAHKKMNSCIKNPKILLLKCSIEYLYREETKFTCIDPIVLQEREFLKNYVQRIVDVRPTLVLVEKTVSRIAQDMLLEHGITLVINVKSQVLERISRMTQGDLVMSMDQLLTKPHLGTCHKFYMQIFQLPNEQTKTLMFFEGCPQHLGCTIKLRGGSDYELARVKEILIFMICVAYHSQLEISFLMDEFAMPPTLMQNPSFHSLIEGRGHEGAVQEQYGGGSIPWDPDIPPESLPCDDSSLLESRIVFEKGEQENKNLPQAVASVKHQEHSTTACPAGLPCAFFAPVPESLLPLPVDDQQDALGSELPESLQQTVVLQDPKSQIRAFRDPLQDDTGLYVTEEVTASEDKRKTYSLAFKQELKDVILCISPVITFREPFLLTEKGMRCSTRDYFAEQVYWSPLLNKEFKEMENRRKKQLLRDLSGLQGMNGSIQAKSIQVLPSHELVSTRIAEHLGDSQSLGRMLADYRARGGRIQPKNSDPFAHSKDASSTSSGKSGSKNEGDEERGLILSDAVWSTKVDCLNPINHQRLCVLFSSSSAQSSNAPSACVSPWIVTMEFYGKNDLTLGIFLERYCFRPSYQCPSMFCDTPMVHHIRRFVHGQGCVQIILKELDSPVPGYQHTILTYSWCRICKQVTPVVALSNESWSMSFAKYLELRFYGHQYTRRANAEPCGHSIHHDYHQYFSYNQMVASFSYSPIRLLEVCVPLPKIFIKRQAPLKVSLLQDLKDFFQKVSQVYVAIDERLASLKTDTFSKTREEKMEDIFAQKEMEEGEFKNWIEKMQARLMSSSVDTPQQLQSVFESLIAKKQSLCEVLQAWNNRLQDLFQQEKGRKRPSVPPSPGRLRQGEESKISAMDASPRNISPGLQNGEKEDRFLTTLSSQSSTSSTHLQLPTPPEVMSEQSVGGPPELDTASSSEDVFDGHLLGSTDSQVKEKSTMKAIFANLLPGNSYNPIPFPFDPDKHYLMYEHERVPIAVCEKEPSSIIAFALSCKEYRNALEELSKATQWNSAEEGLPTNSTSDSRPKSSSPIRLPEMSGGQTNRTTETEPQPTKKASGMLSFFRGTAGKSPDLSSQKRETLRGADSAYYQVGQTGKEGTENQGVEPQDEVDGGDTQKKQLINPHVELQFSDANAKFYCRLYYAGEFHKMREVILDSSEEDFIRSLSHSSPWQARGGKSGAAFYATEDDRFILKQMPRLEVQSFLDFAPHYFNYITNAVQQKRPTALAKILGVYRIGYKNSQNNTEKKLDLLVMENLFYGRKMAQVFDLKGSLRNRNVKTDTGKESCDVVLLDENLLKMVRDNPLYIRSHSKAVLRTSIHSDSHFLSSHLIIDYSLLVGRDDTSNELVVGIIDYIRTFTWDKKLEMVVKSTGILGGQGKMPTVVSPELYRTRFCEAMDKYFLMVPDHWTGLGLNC

| IC50 [nM] | SMILES |
| --- | --- |
| 3870 | c1ccc(-c2ccccc2Nc2nc(N3CCOCC3)c3oc4ncccc4c3n2)cc1 [Example 46, N-([1,1′-biphenyl]-2-yl)-4-morpholinopyrido[3′,2′:4,5]furo[3,2-d]pyrimidin-2-amine] |
| 108 | Fc1ccccc1-c1cc(Nc2nc(N3CCOCC3)c3oc4ncccc4c3n2)[nH]n1 [Example 15, N-(3-(2-fluorophenyl)-1H-pyrazol-5-yl)-4-morpholinopyrido[3′,2′:4,5]furo[3,2-d]pyrimidin-2-amine hydrochloride] |
| 251 | c1ccc(-c2cc(Nc3nc(N4CCOCC4)c4oc5ncccc5c4n3)[nH]n2)nc1 [Example 6, 4-Morpholino-N-(3-(pyridin-2-yl)-1H-pyrazol-5-yl)pyrido[3′,2′:4,5]furo[3,2-d]pyrimidin-2-amine hydrochloride] |
| 862 | Brc1cnc2oc3c(N4CCOCC4)nc(Nc4cc(-c5ccccc5)[nH]n4)nc3c2c1 [Example 51, 8-bromo-4-morpholino-N-(5-phenyl-1H-pyrazol-3-yl)pyrido[3′,2′:4,5]furo[3,2-d]pyrimidin-2-amine] |
| 2090 | c1cnc2oc3c(N4CCOCC4)nc(Nc4cc(C5CC5)n[nH]4)nc3c2c1 [Example 53, N-(3-cyclopropyl-1H-pyrazol-5-yl)-4-morpholinopyrido[3′,2′:4,5]furo[3,2-d]pyrimidin-2-amine hydrochloride] |
| 473 | Fc1ccc(-c2cc(Nc3nc(N4CCOCC4)c4oc5ncccc5c4n3)[nH]n2)cc1 [Example 1, N-(3-(4-Fluorophenyl)-1H-pyrazol-5-yl)-4-morpholinopyrido[3′,2′:4,5]furo[3,2-d]pyrimidin-2-amine hydrochloride] |
| 37 | c1csc(-c2cc(Nc3nc(N4CCOCC4)c4oc5ncccc5c4n3)[nH]n2)c1 [Example 60, 4-morpholino-N-(3-(thiophen-2-yl)-1H-pyrazol-5-yl)pyrido[3′,2′:4,5]furo[3,2-d]pyrimidin-2-amine hydrochloride] |
| 1090 | c1cncc(-c2cc(Nc3nc(N4CCOCC4)c4oc5ncccc5c4n3)[nH]n2)c1 [Example 31, 4-morpholino-N-(3-(pyridin-3-yl)-1H-pyrazol-5-yl)pyrido[3′,2′:4,5]furo[3,2-d]pyrimidin-2-amine hydrochloride] |
| 68 | CN(C)CCOc1ccc2c(n1)oc1c(N3CCOCC3)nc(Nc3cc(-c4ccccc4)n[nH]3)nc12 [Example 4, 7-(2-(Dimethylamino)ethoxy)-4-morpholino-N-(3-phenyl-1H-pyrazol-5-yl)pyrido[3′,2′:4,5]furo[3,2-d]pyrimidin-2-amine hydrochloride] |
| 14 | c1ccc(-c2cc(Nc3nc(N4CCOCC4)c4oc5nc(OCCCN6CCOCC6)ccc5c4n3)[nH]n2)cc1 [Example 25, 4-morpholino-7-(3-morpholinopropoxy)-N-(3-phenyl-1H-pyrazol-5-yl)pyrido[3′,2′:4,5]furo[3,2-d]pyrimidin-2-amine hydrochloride] |
| 129 | Fc1cccc(-c2cc(Nc3nc(N4CCOCC4)c4oc5ncccc5c4n3)[nH]n2)c1 [Example 16, N-(3-(3-fluorophenyl)-1H-pyrazol-5-yl)-4-morpholinopyrido[3′,2′:4,5]furo[3,2-d]pyrimidin-2-amine hydrochloride] |
| 1630 | FC(F)(F)c1cccc(-c2cc(Nc3nc(N4CCOCC4)c4oc5ncccc5c4n3)[nH]n2)c1 [Example 18, 4-morpholino-N-(3-(3-(trifluoromethyl)phenyl)-1H-pyrazol-5-yl)pyrido[3′,2′:4,5]furo[3,2-d]pyrimidin-2-amine hydrochloride] |
| > 10000 | c1cnc(Nc2nc(N3CCOCC3)c3oc4ncccc4c3n2)nc1 [Example 42, 4-morpholino-N-(pyrimidin-2-yl)pyrido[3′,2′:4,5]furo[3,2-d]pyrimidin-2-amine] |
| > 10000 | c1cnc2oc3c(N4CCOCC4)nc(Nc4ccncn4)nc3c2c1 [Example 41, 4-morpholino-N-(pyrimidin-4-yl)pyrido[3′,2′:4,5]furo[3,2-d]pyrimidin-2-amine] |
| > 10000 | c1cnc2oc3c(N4CCOCC4)ncnc3c2c1 [Example 52, 4-Morpholinopyrido[3′,2′:4,5]furo[3,2-d]pyrimidine] |
| 16 | c1ccc(-c2cc(Nc3nc(N4CCOCC4)c4oc5nc(OCCCN6CCCC6)ccc5c4n3)[nH]n2)cc1 [Example 27, 4-morpholino-N-(3-phenyl-1H-pyrazol-5-yl)-7-(3-(pyrrolidin-1-yl)propoxy)pyrido[3′,2′:4,5]furo[3,2-d]pyrimidin-2-amine hydrochloride] |
| > 10000 | c1ccc(CNc2nc(N3CCOCC3)c3oc4ncccc4c3n2)cc1 [Example 2, N-Benzyl-4-morpholinopyrido[3′,2′:4,5]furo[3,2-d]pyrimidin-2-amine] |
| 825 | Cc1cncc(-c2cc(Nc3nc(N4CCOCC4)c4oc5ncccc5c4n3)[nH]n2)c1 [Example 32, N-(3-(5-methylpyridin-3-yl)-1H-pyrazol-5-yl)-4-morpholinopyrido[3′,2′:4,5]furo[3,2-d]pyrimidin-2-amine hydrochloride] |
| 515 | Cc1ccccc1-c1cc(Nc2nc(N3CCOCC3)c3oc4ncccc4c3n2)[nH]n1 [Example 48, 4-morpholino-N-(3-(o-tolyl)-1H-pyrazol-5-yl)pyrido[3′,2′:4,5]furo[3,2-d]pyrimidin-2-amine] |
| 303 | COc1cccc(-c2cc(Nc3nc(N4CCOCC4)c4oc5ncccc5c4n3)[nH]n2)c1 [Example 34, N-(3-(3-methoxyphenyl)-1H-pyrazol-5-yl)-4-morpholinopyrido[3′,2′:4,5]furo[3,2-d]pyrimidin-2-amine hydrochloride] |
| 129 | Clc1cccc(-c2cc(Nc3nc(N4CCOCC4)c4oc5ncccc5c4n3)[nH]n2)c1 [Example 17, N-(3-(3-chlorophenyl)-1H-pyrazol-5-yl)-4-morpholinopyrido[3′,2′:4,5]furo[3,2-d]pyrimidin-2-amine hydrochloride] |
| 5900 | FC(F)(F)c1cc(Nc2nc(N3CCOCC3)c3oc4ncccc4c3n2)[nH]n1 [Example 57, 4-morpholino-N-(3-(trifluoromethyl)-1H-pyrazol-5-yl)pyrido[3′,2′:4,5]furo[3,2-d]pyrimidin-2-amine hydrochloride] |
| 7850 | CCc1cc(Nc2nc(N3CCOCC3)c3oc4ncccc4c3n2)[nH]n1 [Example 62, N-(3-ethyl-1H-pyrazol-5-yl)-4-morpholinopyrido[3′,2′:4,5]furo[3,2-d]pyrimidin-2-amine hydrochloride] |
| 17 | Oc1ccc2c(n1)oc1c(N3CCOCC3)nc(Nc3cc(-c4ccccc4)n[nH]3)nc12 [Example 5, 4-Morpholino-2-((3-phenyl-1H-pyrazol-5-yl)amino)pyrido[3′,2′:4,5]furo[3,2-d]pyrimidin-7-ol hydrochloride] |
| 573 | Cc1ccnc(-c2cc(Nc3nc(N4CCOCC4)c4oc5ncccc5c4n3)[nH]n2)c1 [Example 7, N-(3-(4-Methylpyridin-2-yl)-1H-pyrazol-5-yl)-4-morpholinopyrido[3′,2′:4,5]furo[3,2-d]pyrimidin-2-amine hydrochloride] |
| 831 | c1ccc(Cc2cc(Nc3nc(N4CCOCC4)c4oc5ncccc5c4n3)[nH]n2)cc1 [Example 58, N-(3-benzyl-1H-pyrazol-5-yl)-4-morpholinopyrido[3′,2′:4,5]furo[3,2-d]pyrimidin-2-amine hydrochloride] |
